Experimental data as given in ChEMBL document CHEMBL1147026, “Synthesis of pseudopeptides based L-tryptophan as a potential antimicrobial agent” (Bioorg Med Chem Lett, 2007).
In brackets after ≈: the same amount, converted by molar mass.

Key:
Staphylococcus aureus [1] = experiment: Antibacterial activity against methicillin-susceptible Staphylococcus aureus ATCC 25923 after 24 hrs by two fold dilution method; format: functional; conditions: ATCC 25923, 24 h
Staphylococcus aureus [2] = experiment: Antibacterial activity against methicillin-resistant Staphylococcus aureus CMAH 0430 after 24 hrs by two fold dilution method; format: functional
Staphylococcus aureus [3] = experiment: Antibacterial activity against methicillin-resistant Staphylococcus aureus CMAH 0504 after 24 hrs by two fold dilution method; format: functional
Staphylococcus aureus [4] = experiment: Antibacterial activity against methicillin-resistant Staphylococcus aureus CMAH 0515 after 24 hrs by two fold dilution method; format: functional
Bacillus subtilis = experiment: Antimicrobial activity against Bacillus subtilis after 24 hrs by two fold dilution method; format: functional
Escherichia coli = experiment: Antimicrobial activity against Escherichia coli ATCC 25922 after 24 hrs by two fold dilution method; format: functional; conditions: ATCC 25922, 24 h
Pseudomonas aeruginosa = experiment: Antimicrobial activity against Pseudomonas aeruginosa ATCC 27853 after 24 hrs by two fold dilution method; format: functional; conditions: ATCC 27853, 24 h
Proteus vulgaris = experiment: Antimicrobial activity against Proteus vulgaris CMCC(B) 49001 after 24 hrs by two fold dilution method; format: functional
Klebsiella aerogenes = experiment: Antibacterial activity against Enterobacter aerogenes CMCC(B) 45103 after 24 hrs by two fold dilution method; format: functional
Micrococcus luteus = experiment: Antimicrobial activity against Micrococcus luteus CMCC(B) 28001 after 24 hrs by two fold dilution method; format: functional
Candida albicans [5] = experiment: Antifungal activity against Candida albicans CMAH 0501 after 48 to 72 hrs by broth microdilution method; format: functional
Candida albicans [6] = experiment: Antifungal activity against Candida albicans ATCC 10231 after 48 to 72 hrs by broth microdilution method; format: functional
Candida albicans [7] = experiment: Antifungal activity against Candida albicans CMAH 0503 after 48 to 72 hrs by broth microdilution method; format: functional
Candida albicans [8] = experiment: Antifungal activity against Candida albicans CMAH 0507 after 48 to 72 hrs by broth microdilution method; format: functional
Candida albicans [9] = experiment: Antifungal activity against Candida albicans CMAH 0511 after 48 to 72 hrs by broth microdilution method; format: functional
Candida albicans [10] = experiment: Antifungal activity against fluconazole-resistant Candida albicans CMAH 0520 after 48 to 72 hrs by broth microdilution method; format: functional
Candida albicans [11] = experiment: Antifungal activity against Candida albicans CMAH 0527 after 48 to 72 hrs by broth microdilution method; format: functional
Candida albicans [12] = experiment: Antifungal activity against Candida albicans CMAH 0572 after 48 to 72 hrs by broth microdilution method; format: functional
Candida albicans [13] = experiment: Antifungal activity against Candida albicans CMAM 0577 after 48 to 72 hrs by broth microdilution method; format: functional
Candida albicans [14] = experiment: Antifungal activity against Candida albicans CMAM 0592 after 48 to 72 hrs by broth microdilution method; format: functional
Candida albicans [15] = experiment: Antifungal activity against Candida albicans CMAM 0594 after 48 to 72 hrs by broth microdilution method; format: functional
Candida albicans [16] = experiment: Antifungal activity against fluconazole-resistant Candida albicans CMAM 0597 after 48 to 72 hrs by broth microdilution method; format: functional
Cryptococcus neoformans = experiment: Antifungal activity against Cryptococcus neoformans ATCC 90112 after 48 to 72 hrs by broth microdilution method; format: functional
Saccharomyces cerevisiae = experiment: Antimicrobial activity against Saccharomyces cerevisiae after 48 to 72 hrs by broth microdilution method; format: functional
Rhodotorula glutinis = experiment: Antimicrobial activity against Rhodotorula glutinis SYM 2209 after 48 to 72 hrs by broth microdilution method; format: functional
Aspergillus sp. = experiment: Antifungal activity against Aspergillus sp. after 48 to 72 hrs by broth microdilution method; format: functional
[17] = Toxicity in human erythrocytes assessed as haemolysis upto 4000 ug/mL; format: cell-based, Erythrocyte; conditions: read-out: Activity

CC1(C)S[C@@H]2[C@H](NC(=O)[C@H](N)c3ccccc3)C(=O)N2[C@H]1C(=O)O [AMPICILLIN]
MBC (Staphylococcus aureus [1]): 0.5 µg/mL (≈ 1.43 µM) | MIC (Staphylococcus aureus [1]): 0.25 µg/mL (≈ 0.715 µM) | MIC (Staphylococcus aureus [2]): > 64 µg/mL | MIC (Staphylococcus aureus [3]): > 64 µg/mL | MIC (Staphylococcus aureus [4]): > 64 µg/mL | MBC (Bacillus subtilis): 0.25 µg/mL (≈ 0.715 µM) | MIC (Bacillus subtilis): 0.3 µg/mL (≈ 0.859 µM) | MBC (Escherichia coli): 64 µg/mL (≈ 183 µM) | MIC (Escherichia coli): 32 µg/mL (≈ 91.6 µM) | MIC (Pseudomonas aeruginosa): > 64 µg/mL | MBC (Proteus vulgaris): 0.5 µg/mL (≈ 1.43 µM) | MIC (Proteus vulgaris): 0.3 µg/mL (≈ 0.859 µM) | MIC (Klebsiella aerogenes): > 64 µg/mL | MBC (Micrococcus luteus): 0.5 µg/mL (≈ 1.43 µM) | MIC (Micrococcus luteus): 0.3 µg/mL (≈ 0.859 µM) | MFC (Candida albicans [5]): 128 µg/mL (≈ 366 µM) | MIC (Candida albicans [5]): 32 µg/mL (≈ 91.6 µM)

OC(Cn1cncn1)(Cn1cncn1)c1ccc(F)cc1F [FLUCONAZOLE]
MIC (Candida albicans [6]): 8 µg/mL (≈ 26.1 µM) | MIC (Candida albicans [5]): 16 µg/mL (≈ 52.2 µM) | MIC (Candida albicans [7]): 32 µg/mL (≈ 104 µM) | MIC (Candida albicans [8]): 64 µg/mL (≈ 209 µM) | MIC (Candida albicans [9]): 16 µg/mL (≈ 52.2 µM) | MIC (Candida albicans [10]): > 64 µg/mL | MIC (Candida albicans [11]): 64 µg/mL (≈ 209 µM) | MIC (Candida albicans [12]): 64 µg/mL (≈ 209 µM) | MIC (Candida albicans [13]): 64 µg/mL (≈ 209 µM) | MIC (Candida albicans [14]): 32 µg/mL (≈ 104 µM) | MIC (Candida albicans [15]): 64 µg/mL (≈ 209 µM) | MIC (Candida albicans [16]): > 64 µg/mL | MIC (Cryptococcus neoformans): 16 µg/mL (≈ 52.2 µM) | MIC (Saccharomyces cerevisiae): 4 µg/mL (≈ 13.1 µM) | MIC (Rhodotorula glutinis): > 64 µg/mL | MIC (Aspergillus sp.; Aspergillus sp.): > 64 µg/mL | MIC50 (Aspergillus sp.; Aspergillus sp.): > 64 µg/mL | MIC90 (Aspergillus sp.; Aspergillus sp.): > 64 µg/mL

O=C(N[C@H](CO)[C@H](O)c1ccc([N+](=O)[O-])cc1)C(Cl)Cl [CHLORAMPHENICOL]
MBC (Staphylococcus aureus [1]): 1 µg/mL (≈ 3.09 µM) | MIC (Staphylococcus aureus [1]): 1 µg/mL (≈ 3.09 µM) | MBC (Staphylococcus aureus [2]): 2 µg/mL (≈ 6.19 µM) | MIC (Staphylococcus aureus [2]): 1 µg/mL (≈ 3.09 µM) | MBC (Staphylococcus aureus [3]): 2 µg/mL (≈ 6.19 µM) | MIC (Staphylococcus aureus [3]): 2 µg/mL (≈ 6.19 µM) | MBC (Staphylococcus aureus [4]): 4 µg/mL (≈ 12.4 µM) | MIC (Staphylococcus aureus [4]): 2 µg/mL (≈ 6.19 µM) | MBC (Bacillus subtilis): 2 µg/mL (≈ 6.19 µM) | MIC (Bacillus subtilis): 2 µg/mL (≈ 6.19 µM) | MBC (Escherichia coli): 4 µg/mL (≈ 12.4 µM) | MIC (Escherichia coli): 2 µg/mL (≈ 6.19 µM) | MBC (Pseudomonas aeruginosa): 64 µg/mL (≈ 198 µM) | MIC (Pseudomonas aeruginosa): 32 µg/mL (≈ 99 µM) | MBC (Proteus vulgaris): 0.25 µg/mL (≈ 0.774 µM) | MIC (Proteus vulgaris): 0.25 µg/mL (≈ 0.774 µM) | MBC (Klebsiella aerogenes): 2 µg/mL (≈ 6.19 µM) | MIC (Klebsiella aerogenes): 2 µg/mL (≈ 6.19 µM) | MBC (Micrococcus luteus): 4 µg/mL (≈ 12.4 µM) | MIC (Micrococcus luteus): 2 µg/mL (≈ 6.19 µM) | hemolysis [17]: 14%

C[C@@H]1[C@H](O)[C@@H](C)/C=C/C=C/C=C/C=C/C=C/C=C/C=C/[C@H](O[C@@H]2O[C@H](C)[C@@H](O)[C@H](N)[C@@H]2O)C[C@@H]2O[C@](O)(C[C@@H](O)C[C@@H](O)[C@H](O)CC[C@@H](O)C[C@@H](O)CC(=O)O[C@H]1C)C[C@H](O)[C@H]2C(=O)O [AMPHOTERICIN B]
MFC (Candida albicans [6]): 0.25 µg/mL (≈ 0.271 µM) | MIC (Candida albicans [6]): 0.13 µg/mL (≈ 0.141 µM) | MFC (Candida albicans [5]): 1 µg/mL (≈ 1.08 µM) | MIC (Candida albicans [5]): 0.25 µg/mL (≈ 0.271 µM) | MFC (Candida albicans [7]): 0.5 µg/mL (≈ 0.541 µM) | MIC (Candida albicans [7]): 0.25 µg/mL (≈ 0.271 µM) | MFC (Candida albicans [8]): 0.5 µg/mL (≈ 0.541 µM) | MIC (Candida albicans [8]): 0.5 µg/mL (≈ 0.541 µM) | MFC (Candida albicans [9]): 2 µg/mL (≈ 2.16 µM) | MIC (Candida albicans [9]): 1 µg/mL (≈ 1.08 µM) | MFC (Candida albicans [10]): 0.5 µg/mL (≈ 0.541 µM) | MIC (Candida albicans [10]): 0.25 µg/mL (≈ 0.271 µM) | MFC (Candida albicans [11]): 1 µg/mL (≈ 1.08 µM) | MIC (Candida albicans [11]): 0.5 µg/mL (≈ 0.541 µM) | MFC (Candida albicans [12]): 4 µg/mL (≈ 4.33 µM) | MIC (Candida albicans [12]): 1 µg/mL (≈ 1.08 µM) | MFC (Candida albicans [13]): 4 µg/mL (≈ 4.33 µM) | MIC (Candida albicans [13]): 1 µg/mL (≈ 1.08 µM) | MFC (Candida albicans [14]): 2 µg/mL (≈ 2.16 µM) | MIC (Candida albicans [14]): 2 µg/mL (≈ 2.16 µM) | MFC (Candida albicans [15]): 4 µg/mL (≈ 4.33 µM) | MIC (Candida albicans [15]): 4 µg/mL (≈ 4.33 µM) | MFC (Candida albicans [16]): 4 µg/mL (≈ 4.33 µM) | MIC (Candida albicans [16]): 2 µg/mL (≈ 2.16 µM) | MFC (Cryptococcus neoformans): 1 µg/mL (≈ 1.08 µM) | MIC (Cryptococcus neoformans): 0.25 µg/mL (≈ 0.271 µM) | MFC (Saccharomyces cerevisiae): 0.5 µg/mL (≈ 0.541 µM) | MIC (Saccharomyces cerevisiae): 0.25 µg/mL (≈ 0.271 µM) | MFC (Rhodotorula glutinis): > 64 µg/mL | MIC (Rhodotorula glutinis): 16 µg/mL (≈ 17.3 µM) | MFC50 (Aspergillus sp.): 2 µg/mL (≈ 2.16 µM) | MFC90 (Aspergillus sp.): 8 µg/mL (≈ 8.66 µM) | MFC (Aspergillus sp.; Aspergillus sp.): 2.96 µg/mL (≈ 3.2 µM) | MIC (Aspergillus sp.; Aspergillus sp.): 1.61 µg/mL (≈ 1.74 µM) | MIC50 (Aspergillus sp.; Aspergillus sp.): 1 µg/mL (≈ 1.08 µM) | MIC90 (Aspergillus sp.; Aspergillus sp.): 4 µg/mL (≈ 4.33 µM)
